Test system: human LINE-1
Assay: Human LINE-1 retrotransposition assay (HeLa cell-based dual-luciferase reporter)
Details: Homo sapiens, HeLa, 72 h, Human LINE-1 activity inhibition; HeLa cells, reporter plasmid pYX017, Firefly/Renilla, 72 h incubation
Procedure: Representative Compounds of the Disclosure were tested for inhibition of retrotransposition activity of human LINE-1 in HeLa cells according to the following procedure.
HeLa cervical cancer cells were cultivated at 37° C. in a humidified 5% CO2 incubator in Dulbecco's Modified Eagle's Medium (DMEM)—high glucose, with 4500 mg/L glucose, L-glutamine, sodium pyruvate and sodium bicarbonate (Sigma), supplemented with 10% of heat inactivated fetal bovine serum (Thermo Fisher).
Assays were performed using reporter plasmid pYX017 as described (Xie, et al., 2011) with several modifications. The reporter assay was performed in 96-well white optical bottom plates. HeLa cells were seeded in wells 24 h prior to transfection and compound treatment so that cells were approximately 30% confluent on the day of transfection. Different cell plating densities were tested and a density of 2×10^3 cells was determined to be optimal.
Compounds were resuspended in DMSO. Serial dilutions (1:3) were prepared in DMSO. Medium containing different concentrations of the compounds were prepared by adding 2 μl of the compound dilution to 1 ml of the culture medium. The final concentration of DMSO in the medium was 0.2%.
FuGENE® HD transfection reagent (Promega, E2311, Lot 382574 and Lot 397842) was used to transfect the plasmids into the cells. The transfection reagent: DNA mixture was prepared in OpiMEM (Thermo Fisher) according to manufacturer's instructions. Different ratios of transfection reagent to DNA were tested and a ratio of 3:1 was determined to be optimal. Culture medium was removed from the cells and discarded. The transfection reagent: DNA mixture (5 μl) was mixed with the compound containing medium (100 μl/well) and this was added onto the cells of each well. Cells were incubated at 37° C./5% CO2 for different incubation time. A 72 h incubation time was determined to be optimal.
Luciferase reporter activity was quantified with the Dual-Luciferase® Reporter Assay System (Promega) according to manufacturer's instructions for multiwell plates except that cells were lysed directly on the multiwell plate with 30 μl of the passive lysis buffer (PLB) for 20 min at room temperature, with gentle shaking to ensure complete cell lysis.
Firefly and Renilla luciferase signals were measured using a SpectraMax i3× Multi-Mode Microplate Reader. Integration times of 100 ms and 10 ms were used to measure the Firefly and Renilla signals respectively. Relative L1 activity is calculated as Firefly/Renilla*1000 or Firefly/Renilla*10,000. Dose response inhibition data were fit to a four parameter logistic equation using non-linear regression (using Graphpad Prism 8), to determine IC50 values for each inhibitor.

**Q.** Which IC50 does the source give for `Cc1cn([C@H]2C=C[C@](CO)(C3CC3)O2)c(=O)[nH]c1=O` [compound 47, 1-((2R,5S)-5-cyclopropyl-5-(hydroxymethyl)-2,5-dihydrofuran-2-yl)-5-methylpyrimidine-2,4(1H,3H)-dione] here?
**A.** Its IC50 is over 25 µM.

**Q.** `COC[C@@]1(CO)C=C[C@H](n2cc(C)c(=O)[nH]c2=O)O1` [compound 48, 1-((2R,5S)-5-(hydroxymethyl)-5-(methoxymethyl)-2,5-dihydrofuran-2-yl)-5-methylpyrimidine-2,4(1H,3H)-dione] was tested. Which IC50 did it give?
**A.** The IC50 was over 50 µM.

**Q.** `C#C[C@]1(CO)O[C@H](n2cnc3c(=O)[nH]c(N)nc32)C[C@@H]1O` [compound 49, 2-amino-9-((2S,48,5R)-5-ethynyl-4-hydroxy-5-(hydroxymethyl)tetrahydrofuran-2-yl)-1,9-dihydro-6H-purin-6-one] was tested. Which IC50 did it give?
**A.** Its IC50 is 0.052 µM.

**Q.** `C#C[C@]1(CO)O[C@H](n2cc(C)c(=O)[nH]c2=O)C[C@@H]1O` [compound 50, 1-((2S,4S,5R)-5-ethynyl-4-hydroxy-5-(hydroxymethyl)tetrahydrofuran-2-yl)-5-methylpyrimidine-2,4(1H,3H)-dione] was tested. Which IC50 did it give?
**A.** The IC50 was 25.5 µM.

**Q.** For `C#C[C@]1(CO)OC(n2ccc(=O)[nH]c2=O)C[C@@H]1O` (stereo partly drawn) [compound 51, 1-((4S,5R)-5-ethynyl-4-hydroxy-5-(hydroxymethyl)tetrahydrofuran-2-yl)pyrimidine-2,4(1H,3H)-dione], which IC50 is on record?
**A.** The IC50 was 5.08 µM.

**Q.** For `C#C[C@]1(CO)OC(n2cc(C3CC3)c(=O)[nH]c2=O)C[C@@H]1O` (stereo partly drawn) [compound 52, 5-cyclopropyl-1-((4S,5R)-5-ethynyl-4-hydroxy-5-(hydroxymethyl)tetrahydrofuran-2-yl)pyrimidine-2,4(1H,3H)-dione], which IC50 is on record?
**A.** The IC50 was over 50 µM.

**Q.** With `C#C[C@]1(CO)O[C@H](n2cc(Br)c(=O)[nH]c2=O)C[C@@H]1O` [compound 53, 5-bromo-1-((2S,4S,SR)-5-ethynyl-4-hydroxy-5-(hydroxymethyl)tetrahydrofuran-2-yl)pyrimidine-2,4(1H,3H)-dione] as the compound, how does the IC50 read?
**A.** The IC50 was over 50 µM.

**Q.** How did the IC50 turn out when `C#C[C@]1(CO)O[C@H](n2cc(C)c(N)nc2=O)C[C@@H]1O` [compound 56, 4-amino-1-((2S,4S,5R)-5-ethynyl-4-hydroxy-5-(hydroxymethyl)tetrahydrofuran-2-yl)-5-methylpyrimidin-2(1H)-one] was run?
**A.** The IC50 was over 50 µM.

**Q.** Which IC50 does the source give for `C#C[C@@]1(CO)C=C[C@H](n2cc(OC(F)F)c(=O)[nH]c2=O)O1` [compound 57, 5-(difluoromethoxy)-1-((2R,5R)-5-ethynyl-5-(hydroxymethyl)-2,5-dihydrofuran-2-yl)pyrimidine-2,4(1H,3H)-dione] here?
**A.** The IC50 was over 50 µM.

**Q.** With `C#C[C@]1(CO)OC(n2cc(C#N)c(=O)[nH]c2=O)C[C@@H]1O` (stereo partly drawn) [compound 58, 1-((4S,5R)-5-ethynyl-4-hydroxy-5-(hydroxymethyl)tetrahydrofuran-2-yl)-2,4-dioxo-1,2,3,4-tetrahydropyrimidine-5-carbonitrile] as the compound, how does the IC50 read?
**A.** Its IC50 is over 50 µM.

**Q.** Which IC50 does the source give for `C#C[C@]1(CO)OC(n2cc(OC)c(=O)[nH]c2=O)C[C@@H]1O` (stereo partly drawn) [compound 59, 1-((4S,5R)-5-ethynyl-4-hydroxy-5-(hydroxymethyl)tetrahydrofuran-2-yl)-5-methoxypyrimidine-2,4(1H,3H)-dione] here?
**A.** The IC50 was 20.9 µM.

**Q.** With `C#C[C@]1(CO)OC(n2cc(Br)c(N)nc2=O)C[C@@H]1O` (stereo partly drawn) [compound 60, 4-amino-5-bromo-1-((4S,5R)-5-ethynyl-4-hydroxy-5-(hydroxymethyl)tetrahydrofuran-2-yl)pyrimidin-2(1H)-one] as the compound, how does the IC50 read?
**A.** The IC50 was 5.65 µM.

**Q.** With `C#C[C@]1(CO)OC(n2cnc3c(OC)ncnc32)C[C@@H]1O` (stereo partly drawn) [compound 61, (2R,3S)-2-ethynyl-2-(hydroxymethyl)-5-(6-methoxy-9H-purin-9-yl)tetrahydrofuran-3-ol] as the compound, how does the IC50 read?
**A.** Its IC50 is 7.43 µM.

**Q.** `C=C[C@]1(CO)O[C@H](n2cc(C)c(=O)[nH]c2=O)C[C@@H]1O` [compound 63, 1-((2S,4S,5R)-4-hydroxy-5-(hydroxymethyl)-5-vinyltetrahydrofuran-2-yl)-5-methylpyrimidine-2,4(1H,3H)-dione] was tested. Which IC50 did it give?
**A.** The IC50 was over 12.5 µM.

**Q.** With `C=C[C@]1(CO)O[C@H](n2cc(Br)c(=O)[nH]c2=O)C[C@@H]1O` [compound 65, 5-bromo-1-((2S,4S,5R)-4-hydroxy-5-(hydroxymethyl)-5-vinyltetrahydrofuran-2-yl)pyrimidine-2,4(1H,3H)-dione] as the compound, how does the IC50 read?
**A.** The IC50 was 21.9 µM.

**Q.** How did the IC50 turn out when `C=C[C@]1(CO)OC(n2cc(OC)c(=O)[nH]c2=O)C[C@@H]1O` (stereo partly drawn) [compound 66, 1-((4S,5R)-4-hydroxy-5-(hydroxymethyl)-5-vinyltetrahydrofuran-2-yl)-5-methoxypyrimidine-2,4(1H,3H)-dione] was run?
**A.** The IC50 was 0.738 µM.

**Q.** `C=C[C@]1(CO)OC(n2cc(Br)c(N)nc2=O)C[C@@H]1O` (stereo partly drawn) [compound 67, 4-amino-5-bromo-1-((4S,5R)-4-hydroxy-5-(hydroxymethyl)-5-vinyltetrahydrofuran-2-yl)pyrimidin-2(1H)-one] was tested. Which IC50 did it give?
**A.** Its IC50 is 0.004 µM.

**Q.** For `CC[C@]1(CO)O[C@H](n2cc(C)c(=O)[nH]c2=O)CC1O` (stereo partly drawn) [compound 71, 1-((2S,5R)-5-ethyl-4-hydroxy-5-(hydroxymethyl)tetrahydrofuran-2-yl)-5-methylpyrimidine-2,4(1H,3H)-dione], which IC50 is on record?
**A.** Its IC50 is 1.6 µM.

**Q.** `C#C[C@]1(CO)O[C@H](n2cnc3c(N)nc(N)nc32)C[C@@H]1O` [compound 72, (2R,3S,5S)-5-(2,6-diamino-9H-purin-9-yl)-2-ethynyl-2-(hydroxymethyl)tetrahydrofuran-3-ol] was tested. Which IC50 did it give?
**A.** Its IC50 is 23.4 µM.

**Q.** How did the IC50 turn out when `C#C[C@@]1(CO)C=C[C@H](n2cc(SC(F)(F)F)c(=O)[nH]c2=O)O1` [compound 73, 1-((2R,5R)-5-ethynyl-5-(hydroxymethyl)-2,5-dihydrofuran-2-yl)-5-((trifluoromethyl)thio)pyrimidine-2,4(1H,3H)-dione] was run?
**A.** Its IC50 is over 50 µM.

**Q.** For `C#C[C@]1(CO)O[C@H](n2cnc3c(N)ncnc32)C[C@@H]1O` [compound 80, (2R,3S,5S)-5-(6-amino-9H-purin-9-yl)-2-ethynyl-2-(hydroxymethyl)tetrahydrofuran-3-ol], which IC50 is on record?
**A.** Its IC50 is 3.7 µM.

**Q.** `C#C[C@]1(CO)OC(n2cnc3c(O)ncnc32)C[C@@H]1O` (stereo partly drawn) [compound 81, 9-((4S,5R)-5-ethynyl-4-hydroxy-5-(hydroxymethyl)tetrahydrofuran-2-yl)-9H-purin-6-ol] was tested. Which IC50 did it give?
**A.** The IC50 was 4.4 µM.

**Q.** How did the IC50 turn out when `C#C[C@]1(CO)O[C@H](n2cnc3c(NC4CC4)nc(N)nc32)C[C@@H]1O` [compound 83, (2R,3S,5S)-5-(2-amino-6-(cyclopropylamino)-9H-purin-9-yl)-2-ethynyl-2-(hydroxymethyl)tetrahydrofuran-3-ol] was run?
**A.** The IC50 was 0.429 µM.

**Q.** Which IC50 does the source give for `C#C[C@]1(CO)O[C@H](n2cnc3c(NC4CC4)nc(F)nc32)C[C@@H]1O` [compound 84, (2R,3S,5S)-5-(6-(cyclopropylamino)-2-fluoro-9H-purin-9-yl)-2-ethynyl-2-(hydroxymethyl)tetrahydrofuran-3-ol] here?
**A.** Its IC50 is 14 µM.

**Q.** How did the IC50 turn out when `C#C[C@]1(CO)O[C@@H](n2cnc3c(NC4CC4)nc(F)nc32)C[C@@H]1O` [compound 85, (2R,3S,5R)-5-(6-(cyclopropylamino)-2-fluoro-9H-purin-9-yl)-2-ethynyl-2-(hydroxymethyl)tetrahydrofuran-3-ol] was run?
**A.** Its IC50 is 0.124 µM.

**Q.** For `C#C[C@]1(CO)O[C@@H](n2cnc3c(NC4CC4)ncnc32)C[C@@H]1O` [compound 86, (2R,3S,5R)-5-(6-(cyclopropylamino)-9H-purin-9-yl)-2-ethynyl-2-(hydroxymethyl)tetrahydrofuran-3-ol], which IC50 is on record?
**A.** Its IC50 is 3.4 µM.

**Q.** How did the IC50 turn out when `C=C[C@]1(CO)O[C@H](n2cnc3c(O)nc(N)nc32)C[C@@H]1O` [compound 87, 2-amino-9-((2S,4S,5R)-4-hydroxy-5-(hydroxymethyl)-5-vinyltetrahydrofuran-2-yl)-9H-purin-6-ol] was run?
**A.** Its IC50 is 0.173 µM.

**Q.** Which IC50 does the source give for `C=C[C@]1(CO)O[C@H](n2ccc(N)nc2=O)C[C@@H]1O` [compound 89, 4-amino-1-((2S,4S,5R)-4-hydroxy-5-(hydroxymethyl)-5-vinyltetrahydrofuran-2-yl)pyrimidin-2(1H)-one] here?
**A.** The IC50 was 1.28 µM.

**Q.** With `C#C[C@]1(CO)O[C@@H](N2C=NC3C(NC)=NC(F)=NC32)C[C@@H]1O` (stereo partly drawn) [compound 93, (2R,3S,5R)-2-ethynyl-5-(2-fluoro-6-(methylamino)-4,5-dihydro-9H-purin-9-yl)-2-(hydroxymethyl)tetrahydrofuran-3-ol] as the compound, how does the IC50 read?
**A.** Its IC50 is 15 µM.

**Q.** With `Cc1cn([C@@H]2C[C@@H](O)[C@H](CO)O2)c(=O)[nH]c1=O` [compound 95, 1-((2S,4R,5S)-4-hydroxy-5-(hydroxymethyl)tetrahydrofuran-2-yl)-5-methylpyrimidine-2,4(1H,3H)-dione] as the compound, how does the IC50 read?
**A.** Its IC50 is over 50 µM.

Same assay, conditions: Human LINE-1 activity inhibition; HeLa cells, reporter plasmid pYX017, Firefly/Renilla, 72 h incubation

**Q.** With `C#C[C@]1(CO)OC(n2cnc3c(O)ncnc32)C[C@@H]1O` (stereo partly drawn) [compound 81, 9-((4S,5R)-5-ethynyl-4-hydroxy-5-(hydroxymethyl)tetrahydrofuran-2-yl)-9H-purin-6-ol] as the compound, how does the IC50 read?
**A.** The IC50 was 7.45 µM.

— patent US20260035403A1, “NUCLEOSIDE LINE-1 INHIBITORS” (TRANSPOSON THERAPEUTICS, INC., priority 2022, published 2026)
